The text below walks through data of paper PMC4685510, “A Cell Biologist’s Field Guide to Aurora Kinase Inhibitors” (Frontiers in Oncology, 2015).

Holding throughout (experiment): biochemical
Holding throughout (format): biochemical

The target in assay [1] is T1, 363 human kinases (including Aurora A/B/C) (Homo sapiens, UniProt P53778).
T1 sequence (P53778 1-367): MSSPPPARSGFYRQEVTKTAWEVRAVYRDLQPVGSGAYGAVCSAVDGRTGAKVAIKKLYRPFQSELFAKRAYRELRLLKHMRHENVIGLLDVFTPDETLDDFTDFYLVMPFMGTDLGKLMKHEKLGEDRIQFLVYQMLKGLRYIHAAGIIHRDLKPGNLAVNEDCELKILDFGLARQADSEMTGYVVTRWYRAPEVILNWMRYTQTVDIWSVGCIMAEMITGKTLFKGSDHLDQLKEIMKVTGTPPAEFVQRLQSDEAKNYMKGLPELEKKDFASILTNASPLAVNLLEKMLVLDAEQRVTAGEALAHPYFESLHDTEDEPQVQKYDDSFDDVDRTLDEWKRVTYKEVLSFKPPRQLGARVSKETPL
The note with it: P38g; for remaining activity at 0.1 µM: 100 nM; for remaining activity at 0.1 µM / remaining activity at 0.5 µM: read-out: % Enzyme Activity (relative to DMSO controls).
Excerpt: (§1) However, the Aurora A/B selectivity ratios derived from our in vitro and in vivo data can be compared to prioritize inhibitors.

For assay [2], the target named is T2, 363 human kinases (including Aurora A/B/C) (Homo sapiens, UniProt O95835).
T2 sequence (O95835 1-1130): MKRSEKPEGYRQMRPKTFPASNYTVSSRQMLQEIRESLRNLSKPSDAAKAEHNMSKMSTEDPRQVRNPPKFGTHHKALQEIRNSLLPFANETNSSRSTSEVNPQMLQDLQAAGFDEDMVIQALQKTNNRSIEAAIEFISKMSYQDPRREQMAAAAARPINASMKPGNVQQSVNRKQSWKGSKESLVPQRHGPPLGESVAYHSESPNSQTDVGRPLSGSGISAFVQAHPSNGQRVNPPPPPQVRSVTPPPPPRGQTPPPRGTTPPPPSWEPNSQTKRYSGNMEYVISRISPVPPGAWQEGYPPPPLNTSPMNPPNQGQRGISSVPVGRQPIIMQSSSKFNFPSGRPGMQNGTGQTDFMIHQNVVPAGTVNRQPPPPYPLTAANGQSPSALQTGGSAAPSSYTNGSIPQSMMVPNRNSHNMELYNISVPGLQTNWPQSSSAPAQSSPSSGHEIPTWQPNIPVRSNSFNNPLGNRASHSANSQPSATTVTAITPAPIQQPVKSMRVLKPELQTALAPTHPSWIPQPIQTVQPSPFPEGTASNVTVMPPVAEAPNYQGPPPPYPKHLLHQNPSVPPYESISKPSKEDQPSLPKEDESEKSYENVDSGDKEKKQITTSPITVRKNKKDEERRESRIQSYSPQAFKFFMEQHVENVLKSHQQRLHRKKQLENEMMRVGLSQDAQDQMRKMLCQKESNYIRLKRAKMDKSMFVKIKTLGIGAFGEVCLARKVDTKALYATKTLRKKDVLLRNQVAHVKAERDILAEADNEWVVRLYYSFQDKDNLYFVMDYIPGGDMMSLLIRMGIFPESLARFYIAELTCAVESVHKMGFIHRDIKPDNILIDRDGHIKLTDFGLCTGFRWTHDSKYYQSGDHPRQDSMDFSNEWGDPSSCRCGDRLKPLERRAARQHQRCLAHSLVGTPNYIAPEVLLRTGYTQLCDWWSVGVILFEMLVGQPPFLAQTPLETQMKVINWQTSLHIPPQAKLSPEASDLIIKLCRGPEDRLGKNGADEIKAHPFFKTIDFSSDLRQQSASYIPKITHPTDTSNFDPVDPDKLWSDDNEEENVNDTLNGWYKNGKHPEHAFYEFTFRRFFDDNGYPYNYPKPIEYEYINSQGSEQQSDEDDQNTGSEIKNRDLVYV
The conditions noted are these: LATS1; for remaining activity at 0.1 µM: 100 nM; for remaining activity at 0.1 µM / remaining activity at 0.5 µM: read-out: % Enzyme Activity (relative to DMSO controls).
Excerpt: as §1

Assay [3] addresses T3, 363 human kinases (including Aurora A/B/C) (Homo sapiens, UniProt O95382).
T3 sequence (O95382 1-1288): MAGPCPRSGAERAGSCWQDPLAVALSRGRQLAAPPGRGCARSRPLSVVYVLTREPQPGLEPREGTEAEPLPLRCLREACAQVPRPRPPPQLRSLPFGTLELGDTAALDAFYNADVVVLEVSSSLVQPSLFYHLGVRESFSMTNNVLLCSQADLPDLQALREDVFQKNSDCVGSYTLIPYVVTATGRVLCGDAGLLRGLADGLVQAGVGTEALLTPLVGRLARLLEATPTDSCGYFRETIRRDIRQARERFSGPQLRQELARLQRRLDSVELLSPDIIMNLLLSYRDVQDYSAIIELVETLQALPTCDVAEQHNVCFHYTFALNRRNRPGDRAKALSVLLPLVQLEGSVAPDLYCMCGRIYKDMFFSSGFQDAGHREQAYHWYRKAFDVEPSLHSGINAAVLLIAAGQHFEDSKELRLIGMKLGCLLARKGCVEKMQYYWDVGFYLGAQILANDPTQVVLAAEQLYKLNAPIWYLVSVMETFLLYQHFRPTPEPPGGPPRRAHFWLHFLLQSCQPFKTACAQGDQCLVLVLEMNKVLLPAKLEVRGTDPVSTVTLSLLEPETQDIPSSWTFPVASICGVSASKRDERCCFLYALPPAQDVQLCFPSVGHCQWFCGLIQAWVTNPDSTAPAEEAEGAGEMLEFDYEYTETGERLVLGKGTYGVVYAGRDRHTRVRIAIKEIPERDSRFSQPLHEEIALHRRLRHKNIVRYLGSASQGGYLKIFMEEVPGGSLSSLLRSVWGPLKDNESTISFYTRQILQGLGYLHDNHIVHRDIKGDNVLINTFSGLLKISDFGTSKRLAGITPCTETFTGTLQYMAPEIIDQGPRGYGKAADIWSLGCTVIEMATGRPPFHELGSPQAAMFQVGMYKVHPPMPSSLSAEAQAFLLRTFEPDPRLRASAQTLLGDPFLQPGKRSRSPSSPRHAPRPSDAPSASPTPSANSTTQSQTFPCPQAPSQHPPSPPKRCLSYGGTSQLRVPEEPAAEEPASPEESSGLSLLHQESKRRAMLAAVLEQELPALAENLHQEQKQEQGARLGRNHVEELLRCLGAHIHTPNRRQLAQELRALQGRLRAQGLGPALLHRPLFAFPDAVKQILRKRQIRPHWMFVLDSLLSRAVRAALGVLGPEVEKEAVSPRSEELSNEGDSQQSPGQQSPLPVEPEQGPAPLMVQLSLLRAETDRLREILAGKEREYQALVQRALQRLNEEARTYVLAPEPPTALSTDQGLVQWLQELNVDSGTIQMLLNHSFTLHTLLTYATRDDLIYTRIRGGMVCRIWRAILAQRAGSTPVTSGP
The note with it: MEKK6; for remaining activity at 0.1 µM: 100 nM; for remaining activity at 0.1 µM / remaining activity at 0.5 µM: read-out: % Enzyme Activity (relative to DMSO controls).
Excerpt: as §1

For `CCn1cc(-c2ccnc3[nH]c(-c4cccc(CN(C)C)c4)cc23)c(-c2ccc(NC(=O)N(C)C)cc2)n1` [GSK1070916], the remaining activity at 0.1 µM turned out to be 115% in assay [1], 97.5% in assay [2] and 94.5% in assay [3].
For `O=C(O)[C@]1(Cc2cccc(Nc3nccs3)n2)CC[C@@H](Oc2cccc(Cl)c2F)CC1` [MK-5108], the remaining activity at 0.1 µM turned out to be 100% in assay [1], 98.5% in assay [2] and 99.6% in assay [3]. Further, the remaining activity at 0.5 µM in assay [1] (500 nM) was determined as 112%; in assay [2] (500 nM) it was 94.1%; in assay [3] (500 nM), 97.4%.
Take `O=C(c1cccc(Cl)c1F)N1CCN(Cc2cccc(Nc3nccs3)n2)CC1` [MK-8745]: the “% Enzyme Activity (relative to DMSO controls)” value in assay [1] (500 nM) amounted to 107.28%; in assay [2] (500 nM), 96.46%; in assay [3] (500 nM), 83.68%. Moreover, the remaining activity at 0.5 µM amounted to 110% in assay [1] (500 nM), 96.8% in assay [2] (500 nM) and 87.7% in assay [3] (500 nM).
